The numbers were not newly measured in patent US20240358731A1, “SUMO PATHWAY AS AN OXYGEN SENSOR RELEVANT TO THE PATHOPHYSIOLOGY OF PULMONARY ARTERY HYPERTENSION AND CARDIAC ARRHYTHMIA” (Northeastern University, priority 2023, published 2024), which cites them from elsewhere.

The target in this series is T1, SUMO activating enzyme (SAE) (Homo sapiens, UniProt Q9UBE0+Q9UBT2).
T1 sequence (Q9UBE0 1-346): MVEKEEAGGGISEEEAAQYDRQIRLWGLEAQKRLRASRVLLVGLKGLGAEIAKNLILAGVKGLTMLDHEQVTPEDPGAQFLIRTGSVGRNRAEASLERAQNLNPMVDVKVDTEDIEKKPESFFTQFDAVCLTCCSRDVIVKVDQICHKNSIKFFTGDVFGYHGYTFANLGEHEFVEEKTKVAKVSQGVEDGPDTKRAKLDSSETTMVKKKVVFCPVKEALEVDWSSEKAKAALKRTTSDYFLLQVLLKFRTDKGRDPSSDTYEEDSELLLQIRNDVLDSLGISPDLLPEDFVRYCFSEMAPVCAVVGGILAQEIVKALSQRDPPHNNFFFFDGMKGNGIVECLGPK
T1 sequence (Q9UBT2 1-640): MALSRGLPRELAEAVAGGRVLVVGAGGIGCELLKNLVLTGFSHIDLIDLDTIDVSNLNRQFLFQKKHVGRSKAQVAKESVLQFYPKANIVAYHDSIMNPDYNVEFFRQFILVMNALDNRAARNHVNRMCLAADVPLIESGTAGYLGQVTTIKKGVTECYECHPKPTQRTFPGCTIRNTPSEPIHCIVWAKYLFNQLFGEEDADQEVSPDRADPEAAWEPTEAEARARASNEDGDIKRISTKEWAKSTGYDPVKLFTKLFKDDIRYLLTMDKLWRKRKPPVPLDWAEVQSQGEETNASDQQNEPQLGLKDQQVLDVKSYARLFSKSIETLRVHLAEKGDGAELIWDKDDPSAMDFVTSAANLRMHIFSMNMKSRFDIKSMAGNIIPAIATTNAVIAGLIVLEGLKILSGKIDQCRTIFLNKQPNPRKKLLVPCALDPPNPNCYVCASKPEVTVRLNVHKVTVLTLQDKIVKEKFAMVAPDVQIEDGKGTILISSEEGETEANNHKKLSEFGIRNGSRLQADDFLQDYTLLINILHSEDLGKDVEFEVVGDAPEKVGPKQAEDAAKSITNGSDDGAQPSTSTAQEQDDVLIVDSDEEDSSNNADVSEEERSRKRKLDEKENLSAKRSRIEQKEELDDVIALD
As to conditions: cited from earlier work.

`Cc1sc(C(=O)c2cncnc2N[C@@H]2C[C@H](COS(N)(=O)=O)[C@@H](O)C2)cc1[C@@H]1NCCc2ccc(Cl)cc21` [TAK981, Subasumstat]: the “SAE / SUMO E1 inhibition” value is “nM-inhibitor” and the selectivity entry was “highly selective”.
